Data published in the supplement of paper PMC10331698.
± gives the standard deviation of the averaged measurements.

Assays:
Assay in all cases: level (log10 ratio to DMSO vehicle control); higher = higher biomarker level / cell amount than vehicle control
[1] = compound: C=C(C)C(=O)OCCC(F)(F)C(F)(F)C(F)(F)C(F)(F)C(F)(F)C(F)(F)C(F)(F)C(F)(F)F [8:2 Fluorotelomer methacrylate] (in DMSO)
Method: (§1)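 BioMAP Diversity Plus panel of 12 human primary cell co-culture systems (3C, 4H, LPS, SAg, BT, BF4T, BE3C, CASM3C, HDF3CGF, KF3CT, MyoF, Mphg). Compounds were added 1 h before stimulation and left for 24 h (MyoF 48 h; BT 72 h for soluble read-outs or 6 d for IgG). Biomarkers were read by ELISA, cytotoxicity by SRB, PBMC viability and proliferation by Alamar Blue. Each well value was divided by the mean of 8 DMSO control wells on the same plate and log10 transformed; duplicate blinded samples were tested at 4 concentrations.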

Perfluorononanoic acid = compound: O=C(O)C(F)(F)C(F)(F)C(F)(F)C(F)(F)C(F)(F)C(F)(F)C(F)(F)C(F)(F)F [Perfluorononanoic acid] (in DMSO)
Method: as §1

[2] = compound: O=C(O)C(F)(F)OC(F)(F)C(F)(F)OC(F)(F)C(F)(F)OC(F)(F)C(F)(F)C(F)(F)C(F)(F)F [Perfluoro-3,6,9-trioxatridecanoic acid] (in DMSO); settings: 6700 nM
Method: as §1

[3] = compound: O=C(O)C(F)(OC(F)(F)C(F)(F)C(F)(F)F)C(F)(F)F [Ammonium perfluoro-2-methyl-3-oxahexanoate] (in Water)
Method: as §1

[4] = compound: O=C(O)C(F)(OC(F)(F)C(F)(OC(F)(F)C(F)(OC(F)(F)C(F)(F)C(F)(F)F)C(F)(F)F)C(F)(F)F)C(F)(F)F [Perfluoro-(2,5,8-trimethyl-3,6,9-trioxadodecanoic)acid] (in DMSO)
Method: as §1

[5] = compound: O=C(O)CCC(F)(C(F)(F)F)C(F)(F)F [4,4-bis(Trifluoromethyl)-4-fluoropropanoic acid] (in DMSO)
Method: as §1

[6] = compound: OCC(F)(F)C(F)(F)C(F)(F)C(F)F [1H,1H,5H-Perfluoropentanol] (in DMSO)
Method: as §1

[7] = compound: OCC(F)(F)OC(F)(F)C(F)(F)OC(F)(F)C(F)(F)OC(F)(F)CO [1H,1H,11H,11H-Perfluorotetraethylene glycol] (in DMSO)
Method: as §1

| Test System | level (log10) ([1]; 6700 nM) | level (log10) ([1]; 20000 nM) | level (log10) (Perfluorononanoic acid; 6700 nM) | level (log10) (Perfluorononanoic acid; 20000 nM) | level (log10) [2] | level (log10) ([3]; 6700 nM) | level (log10) ([3]; 20000 nM) | level (log10) ([3]; 60000 nM) | level (log10) ([4]; 1100 nM) | level (log10) ([4]; 3300 nM) | level (log10) ([4]; 10000 nM) | level (log10) ([5]; 6700 nM) | level (log10) ([5]; 20000 nM) | level (log10) ([5]; 60000 nM) | level (log10) ([6]; 6700 nM) | level (log10) ([6]; 20000 nM) | level (log10) ([6]; 60000 nM) | level (log10) ([7]; 6700 nM) | level (log10) ([7]; 20000 nM) | level (log10) ([7]; 60000 nM) |
| --- | --- | --- | --- | --- | --- | --- | --- | --- | --- | --- | --- | --- | --- | --- | --- | --- | --- | --- | --- | --- |
| CASM3C:M-CSF | -0.0325 ± 0.019 | -0.019 ± 0.067 | 0.045 ± 0.0099 | 0.0435 ± 0.028 | 0.0215 ± 0.013 | -0.049 ± 0.016 | -0.0405 ± 0.0092 | -0.0405 ± 0.022 | -0.0285 ± 0.029 | 0.0055 ± 0.016 | 0.002 ± 0.0014 | -0.0145 ± 0.042 | 0.024 ± 0.048 | 0.0875 ± 0.056 | 0.025 ± 0.024 | -0.0195 ± 0.022 | 0.0045 ± 0.063 | -0.0255 ± 0.026 | -0.035 ± 0.02 | -0.0345 ± 0.011 |
| lMphg:SRB-Mphg | 0.0085 ± 0.011 | -0.009 ± 0.031 | -0.0205 ± 0.035 | -0.062 ± 0.081 | 0.0035 ± 0.0035 | -0.0535 ± 0.036 | -0.046 ± 0.041 | -0.054 ± 0.041 | -0.0035 ± 0.00071 | -0.0135 ± 0.0092 | 0.014 ± 0.014 | 0.0125 ± 0.0021 | -0.0025 ± 0.012 | 0.002 ± 0.016 | -0.012 ± 0.023 | -0.0605 ± 0.057 | 0.0145 ± 0.033 | 0 ± 0.0042 | -0.011 ± 0.0028 | -0.077 ± 0.0028 |
| MyoF:CD106/VCAM-1 | -0.0125 ± 0.012 | 0.002 ± 0.011 | -0.0475 ± 0.025 | -0.024 ± 0.016 | -0.212 ± 0.048 | 0.0105 ± 0.033 | 0.012 ± 0.011 | -0.011 ± 0.0099 | 0 ± 0.0028 | -0.0035 ± 0.0092 | 0.013 ± 0.0099 | -0.0065 ± 0.0078 | -0.0095 ± 0.026 | -0.0045 ± 0.015 | -0.02 ± 0.0099 | -0.0005 ± 0.035 | 0.0165 ± 0.015 | 0.011 ± 0.0057 | -0.012 ± 0.011 | -0.0985 ± 0.05 |
| BE3C:tPA | -0.0125 ± 0.067 | -0.036 ± 0.082 | -0.012 ± 0.0042 | -0.172 ± 0.023 | -0.452 ± 0.005 | -0.101 ± 0.047 | -0.0935 ± 0.021 | -0.0945 ± 0.021 | -0.0035 ± 0.025 | 0.0075 ± 0.023 | 0.017 ± 0.04 | 0.02 ± 0.075 | -0.001 ± 0.044 | -0.025 ± 0.027 | -0.019 ± 0.0042 | -0.022 ± 0.017 | -0.0035 ± 0.011 | -0.0145 ± 0.035 | -0.0265 ± 0.044 | -0.008 ± 0.061 |
| lMphg:CCL3/MIP-1alpha | 0.0075 ± 0.039 | 0.028 ± 0.065 | 0.004 ± 0.0028 | 0.0175 ± 0.0021 | -0.0245 ± 0.019 | -0.0685 ± 0.035 | -0.067 ± 0.0014 | -0.0185 ± 0.054 | 0.0465 ± 0.019 | -0.003 ± 0.05 | 0.039 ± 0.041 | 0.03 ± 0.047 | 0.0255 ± 0.025 | 0.021 ± 0.035 | -0.012 ± 0.024 | -0.011 ± 0.027 | 0.0095 ± 0.0078 | -0.051 ± 0.051 | -0.0435 ± 0.026 | 0.015 ± 0.055 |
| lMphg:CD40 | -0.0215 ± 0.029 | -0.05 ± 0.052 | 0.002 ± 0.013 | -0.03 ± 0.03 | -0.0205 ± 0.013 | -0.0295 ± 0.0064 | -0.045 ± 0.0099 | -0.049 ± 0.011 | 0.019 ± 0.057 | 0.026 ± 0.076 | -0.0195 ± 0.036 | 0.0025 ± 0.016 | -0.001 ± 0.041 | -0.031 ± 0.041 | 0.0015 ± 0.023 | -0.012 ± 0.016 | 0.007 ± 0.02 | -0.0235 ± 0.019 | -0.0385 ± 0.013 | -0.0755 ± 0.03 |
| BE3C:SRB | -0.003 | 0.0025 ± 0.005 | -0.0015 ± 0.005 | -0.04 ± 0.0028 | -0.231 ± 0.012 | -0.003 ± 0.0042 | 0 ± 0.0014 | 0.003 ± 0.0099 | -0.0015 ± 0.0021 | -0.0075 ± 0.0035 | 0.0105 ± 0.015 | 0.003 ± 0.0014 | -0.001 ± 0.0057 | 0.018 ± 0.0085 | 0 ± 0.0014 | 0.0025 ± 0.0092 | 0.007 ± 0.011 | -0.004 ± 0.0057 | -0.0055 ± 0.00071 | -0.0115 ± 0.00071 |
| CASM3C:LDLR | -0.0085 ± 0.018 | 0.0055 ± 0.026 | -0.05 ± 0.02 | -0.0415 ± 0.011 | -0.029 ± 0.011 | -0.061 ± 0.057 | -0.032 ± 0.04 | -0.0545 ± 0.021 | 0.0065 ± 0.011 | 0.004 ± 0.0014 | 0.0025 ± 0.021 | -0.0085 ± 0.037 | 0.0045 ± 0.036 | 0.018 ± 0.014 | -0.0555 ± 0.086 | -0.0425 ± 0.044 | -0.0125 ± 0.00071 | -0.019 ± 0.0028 | -0.025 ± 0.0042 | 0.0225 ± 0.022 |
| MyoF:MMP-1 | -0.015 ± 0.02 | -0.0075 ± 0.0021 | -0.025 ± 0.031 | 0.0665 ± 0.0021 | 0.0205 ± 0.029 | -0.0025 ± 0.0064 | 0.0185 ± 0.0092 | -0.0095 ± 0.0064 | -0.048 ± 0.0014 | -0.0475 ± 0.012 | -0.03 ± 0.027 | 0.0125 ± 0.013 | -0.0265 ± 0.00071 | 0 ± 0.011 | -0.054 ± 0.028 | -0.01 ± 0.052 | 0.093 ± 0.13 | 0 ± 0.027 | -0.0085 ± 0.015 | 0.0465 ± 0.083 |
| BE3C:Keratin 8/18 | -0.0195 ± 0.037 | -0.008 ± 0.071 | -0.0335 ± 0.04 | -0.0365 ± 0.032 | -0.293 ± 0.032 | -0.042 ± 0.0042 | -0.019 ± 0.024 | -0.0165 ± 0.0092 | -0.0165 ± 0.028 | -0.0085 ± 0.022 | -0.001 ± 0.038 | 0.011 ± 0.0028 | -0.0005 ± 0.025 | -0.0045 ± 0.011 | -0.0225 ± 0.011 | 0.0135 ± 0.005 | 0.0035 ± 0.025 | 0.0025 ± 0.049 | -0.0065 ± 0.00071 | -0.023 ± 0.025 |
| lMphg:CXCL8/IL-8 | 0.0355 ± 0.023 | 0.085 ± 0.016 | 0.093 ± 0.03 | 0.186 ± 0.06 | 0.126 ± 0.016 | 0.137 ± 0.0021 | 0.194 ± 0.0078 | 0.261 ± 0.025 | 0.0035 ± 0.04 | 0.005 ± 0.02 | 0.0375 ± 0.033 | 0.017 ± 0.059 | 0.032 ± 0.024 | 0.01 ± 0.076 | 0.018 ± 0.017 | -0.0005 ± 0.019 | 0.035 ± 0.0028 | -0.022 ± 0.017 | -0.034 ± 0.017 | -0.0265 ± 0.032 |
| MyoF:PAI-I | 0.0005 ± 0.0078 | -0.013 ± 0.0071 | -0.01 ± 0.028 | 0.0105 ± 0.03 | -0.0885 ± 0.046 | -0.0005 ± 0.005 | -0.0025 ± 0.0064 | -0.019 ± 0.011 | 0.005 ± 0.021 | 0.006 ± 0.0085 | 0.0085 ± 0.016 | -0.005 ± 0.0057 | -0.007 ± 0.0042 | -0.006 ± 0.0099 | -0.0265 ± 0.0078 | -0.018 ± 0.031 | -0.0045 ± 0.0021 | -0.01 ± 0.02 | -0.0135 ± 0.013 | -0.01 ± 0.018 |
| lMphg:M-CSF | -0.013 ± 0.018 | -0.0365 ± 0.022 | -0.0215 ± 0.0064 | -0.006 ± 0.031 | 0.023 ± 0.0071 | -0.084 ± 0.021 | -0.0725 ± 0.00071 | -0.0815 ± 0.011 | -0.0095 ± 0.00071 | -0.0065 ± 0.022 | 0.0145 ± 0.021 | -0.0115 ± 0.043 | -0.0135 ± 0.032 | -0.0165 ± 0.019 | 0.0115 ± 0.016 | -0.0125 ± 0.0064 | 0.0175 ± 0.021 | -0.0215 ± 0.0021 | -0.0385 ± 0.0078 | -0.0575 ± 0.044 |
